Patent US5017596A, “Arylpyrazolylcarbinol compounds with analgesic activity” (Laboratorios del Dr. Esteve, S.A., priority 1987, dated 1991)
Read-outs that look alike come from different tables or passages of the source.

Tests used:
Assay type in all cases: in vivo, Swiss male mice
Conditions in all cases: Mus musculus, po, read-out: % inhibition of contortions
[1] = test system: contortions induced by acetylcholine bromide in mice; test: Analgesic activity: inhibition of the contortions induced by acetylcholine bromide in mice (Collier's method)
Procedure: (§1) Swiss male mice weighing 17-22 grams are used. Groups containing a minimum of 4 animals are used.
Contortions are induced by the intraperitoneal injection of acetylcholine bromide (7.2 mg/kg, dissolved in physiological serum, a volume of 10 ml/kg of weight being administered) at the start of the experiment and the number of contortions is counted for 5 minutes, this being the reference number for each animal (mice with fewer than 2 contortions are rejected). Immediately afterwards, the test products are administered orally, at a dose of 160 mg/kg, in the form of a suspension or solution in gum arabic at a concentration of 5% (w/v) in distilled water. 40 and 120 minutes after the treatment, acetylcholine bromide is administered again, the contortions are noted and the readings at 40 and 120 minutes are evaluated, taking the contortions of the initial reading as the reference.

[2] = test system: contortions induced by acetic acid in mice; test: Analgesic activity: inhibition of the contortions induced by acetic acid in mice (Koster's method)
Procedure: Swiss male mice weighing 17-22 grams are used. Groups containing a minimum of 4 animals for each dose are used.
Each product is suspended or dissolved in gum arabic at a concentration of 5% (w/v) in distilled water and is administered orally, at a dose of 160 mg/kg, 60 minutes before the injection of acetic acid.

[3] = test system: contortions induced by phenylbenzoquinone in mice; test: Analgesic activity: inhibition of the contortions induced by phenylbenzoquinone in mice (Siegmund's method)
Procedure: Analgesic activity: Inhibition of the contortions induced by phenylbenzoquinone in mice--Siegmund's method (E. Siegmund, R. Cadmus and G. Lu, Proc Soc. Exp. Biol. Med., 95, 729 (1957))
as §1
Contortions are induced by the intraperitoneal injection of phenyl-p-benzoquinone (25 ml/kg of a 0.02% solution in a solution of ethanol at a concentration of 5% (v/v) in distilled water, with Evans blue in a proportion of 0.1% (w/v)) and are counted for 15 minutes as from the time of injection. Each product is suspended or dissolved in gum arabic at a concentration of 5% (w/v) in distilled water and is administered orally, at a dose of 160 mg/kg, 60 minutes before the injection of phenylbenzoquinone. The inhibition of contortions due to each product is determined, taking as the reference the contortions in a group of control animals to which only the vehicle is administered orally 60 minutes before the phenylbenzoquinone.

[4] = 160 mg/kg, administered orally, acetylcholine bromide 7.2 mg/kg i.p., mean of the values at 40 and 120 minutes
[5] = 160 mg/kg, administered orally 60 minutes before acetic acid i.p., contortions counted for 15 minutes
[6] = 160 mg/kg, administered orally 60 minutes before phenylbenzoquinone i.p., contortions counted for 15 minutes

Row | Structure (SMILES) | inhibition in vivo at 160 mg/kg [1, 4] | inhibition in vivo at 160 mg/kg [3, 6] | further results
1 | CCCCC(OCCCN(C)C)(c1cccc(C(F)(F)F)c1)c1nccn1C (stereo not drawn) [Example 76] | 100% |  | 
2 | CCCCn1ccnc1C(O)(CCCC)c1ccccc1Cl (stereo not drawn) [Example 142] | 80% |  | 
3 | CN(C)CCOC(C)(c1ccccc1Cl)c1nccn1C (stereo not drawn) [Example 5] | 100% |  | 
4 | CN(C)CCOC(C)(c1ccc(F)cc1)c1nccn1C (stereo not drawn) [Example 6] | 75% |  | inhibition in vivo at 160 mg/kg [2, 5]: 50%
5 | CN(C)CCCOC(C)(c1ccc(Cl)cc1)c1nccn1C (stereo not drawn) [Example 59, α-(4-chlorophenyl)-α-methyl-1-methyl-0-(3-dimethylaminopropyl)-1H-imidazole-2-methanol] | 100% |  | inhibition in vivo at 160 mg/kg [2, 5]: 87.5%
6 | CCCCn1ccnc1C(O)(CCCC)c1cc(OC)c(OC)c(OC)c1 (stereo not drawn) [Example 141] | 62.5% |  | 
7 | COc1ccc(C(C)(OCCCN(C)C)c2nccn2C)cc1 (stereo not drawn) [Example 69] | 95% |  | 
8 | Cn1ccnc1C(C)(OCCN1CCCC1)c1cccc(Cl)c1 (stereo not drawn) [Example 12] |  |  | inhibition in vivo at 160 mg/kg [2, 5]: 82.5%
9 | CN(C)CCCOC(c1ccc(Cl)cc1)c1nccn1C (stereo not drawn) [Example 70] | 100% |  | 
10 | CN(C)CCOC(c1ccccc1)c1ccnn1C (stereo not drawn) [Example 31] |  | 80% | inhibition in vivo at 160 mg/kg [2, 5]: 80%
11 | CCCCn1nccc1C(C)(OCCN(C)C)c1ccc(Cl)cc1 (stereo not drawn) [Example 30] |  | 27.5% | 
12 | COc1ccc(C(OCCCN(C)C)c2nccn2C)cc1 (stereo not drawn) [Example 75] | 100% |  | 
13 | CN(C)CCCOC(c1ccc(C(F)(F)F)cc1)c1nccn1C (stereo not drawn) [Example 74] | 100% |  | 
14 | CCCCn1ccnc1C(O)c1ccc(Cl)cc1Cl (stereo not drawn) [Example 115] |  | 39.5% | inhibition in vivo at 160 mg/kg [2, 5]: 50%
15 | CN(C)CCOC(c1cccc(Cl)c1)c1nccn1C (stereo not drawn) [Example 4] | 95% |  | 
16 | CCCCn1ccnc1C(C)(OCCCN(C)C)c1ccc(Cl)cc1 (stereo not drawn) [Example 77] | 100% |  | 
17 | CN(C)CCOC(C)(c1cccc(C(F)(F)F)c1)c1nccn1C (stereo not drawn) [Example 7] | 95% |  | inhibition in vivo at 160 mg/kg [2, 5]: 67.5%
18 | CN(C)CCOC(C)(c1ccc(Cl)cc1)c1nccn1C (stereo not drawn) [Example 2] | 100% |  | 
19 | Cn1ccnc1C(O)c1cccc(C(F)(F)F)c1 (stereo not drawn) [Example 110, 1-methyl-α-(3-trifluoromethylphenyl)-1H-imidazole-2-methanol] | 57.5% |  | 
20 | Cn1ccnc1C(C)(OCCCN1CCCCC1)c1ccc(C(F)(F)F)cc1 (stereo not drawn) [Example 83] | 88.3% |  | 
21 | CN(C)CCOC(C)(c1ccc(Cl)cc1)c1nccn1CCN1CCCCC1 (stereo not drawn) [Example 20] |  | 25% | 

Row | Structure (SMILES) | inhibition in vivo at 160 mg/kg [1, 4] | inhibition in vivo at 160 mg/kg [3, 6] | further results
22 | CN(C)CCOC(c1ccccc1)c1c(Br)cnn1C (stereo not drawn) [Example 37] |  | 77.5% | inhibition in vivo at 160 mg/kg [2, 5]: 72.5%
23 | CC(=O)Oc1ccccc1C(=O)O [Acetylsalicylic acid, reference compound] |  |  | inhibition in vivo at 160 mg/kg [1]: 92.5%; inhibition in vivo at 160 mg/kg [3]: 75%; inhibition in vivo at 160 mg/kg [2]: 72.5%
24 | Cn1ccnc1C(C)(O)c1ccccc1Cl (stereo not drawn) [Example 126] | 65% |  | 
25 | CN(C)CCCOC(C)(c1ccc(F)cc1)c1nccn1C (stereo not drawn) [Example 64] | 100% |  | inhibition in vivo at 160 mg/kg [2, 5]: 50%
26 | CCCCn1ccnc1C(O)c1cc(OC)c(OC)c(OC)c1 (stereo not drawn) [Example 117] | 60% |  | 
27 | CN(C)CCOC(c1ccc(Cl)c(Cl)c1)c1nccn1C (stereo not drawn) [Example 19] |  | 87.5% | 
28 | CN(C)CCCOC(C)(c1ccccc1)c1ccnn1C (stereo not drawn) [Example 95] |  | 45% | 
29 | COc1cc(C(C)(O)c2nccn2C)cc(OC)c1OC (stereo not drawn) [Example 137] | 85% |  | 
30 | Cn1ccnc1C(C)(O)c1ccc(Cl)cc1 (stereo not drawn) [Example 121, α-(4-chlorophenyl)-α-methyl-1-methyl-1H-imidazole-2-methanol] | 70% |  | 
31 | CCCCn1nccc1C(OCCN(C)C)c1ccccc1 (stereo not drawn) [Example 27] |  | 40% | 
32 | Cn1ccnc1C(O)c1ccc(Cl)cc1 (stereo not drawn) [Example 107] | 57.5% |  | 
33 | CCCCC(O)(c1cccc(C(F)(F)F)c1)c1nccn1C (stereo not drawn) [Example 129] | 55% |  | 
34 | COc1ccc(C(C)(O)c2nccn2C)cc1 (stereo not drawn) [Example 133] | 52.5% |  | 
35 | Cn1ccnc1C(O)c1ccc(Cl)c(Cl)c1 (stereo not drawn) [Example 113] |  | 57.5% | 
36 | COc1cc(C(OCCN(C)C)c2ccnn2C)cc(OC)c1OC (stereo not drawn) [Example 33] |  | 35% | 
37 | Cn1ccnc1C(C)(O)c1cccc(C(F)(F)F)c1 (stereo not drawn) [Example 128] | 82.5% | 67.5% | inhibition in vivo at 160 mg/kg [2, 5]: 52.5%
38 | CCCCn1ccnc1C(O)c1ccc(Cl)cc1 (stereo not drawn) [Example 116] |  | 27.5% | 
39 | CN(C)CCCOC(C)(c1ccc(C(F)(F)F)cc1)c1nccn1C (stereo not drawn) [Example 72] | 100% |  | 
40 | Cc1cc(C(OCCN(C)C)c2ccccc2)n(C)n1 (stereo not drawn) [Example 39] |  | 37.5% | 
41 | CCC(OCCCN(C)C)(c1ccc(Cl)cc1)c1nccn1C (stereo not drawn) [Example 61] | 97.5% |  | 
42 | CN(C)CCCOC(C)(c1ccc(Cl)c(Cl)c1)c1nccn1C (stereo not drawn) [Example 86] |  | 98.8% | inhibition in vivo at 160 mg/kg [2, 5]: 50%

Row | Structure (SMILES) | inhibition in vivo at 160 mg/kg [1, 4] | inhibition in vivo at 160 mg/kg [3, 6] | further results
43 | CN(C)CCOC(C)(c1ccccc1)c1ccnn1C (stereo not drawn) [Example 32] |  | 37.5% | 
44 | CN(C)CCCOC(c1cccc(C(F)(F)F)c1)c1nccn1C (stereo not drawn) [Example 73] | 100% |  | 
45 | CCCCn1ccnc1C(OCCN(C)C)c1ccc(C(F)(F)F)cc1 (stereo not drawn) [Example 14] | 85% |  | 
46 | CN(C)CCCOC(c1ccc(Cl)c(Cl)c1)c1nccn1C (stereo not drawn) [Example 87] |  | 77.5% | 
47 | CN(C)CCOC(C)(c1ccc(Cl)c(Cl)c1)c1nccn1C (stereo not drawn) [Example 18] |  | 82.5% | 
48 | CN(C)CCCOC(c1cccc(Cl)c1)c1nccn1C (stereo not drawn) [Example 60] | 82.5% |  | inhibition in vivo at 160 mg/kg [2, 5]: 62.5%
49 | CCCCC(O)(c1ccccc1Cl)c1nccn1C (stereo not drawn) [Example 127] | 70% |  | 
50 | CN(C)CCCOC(c1ccccc1)c1ccnn1C (stereo not drawn) [Example 94] |  | 40% | 
51 | Cn1ccnc1C(O)c1ccc(C(F)(F)F)cc1 (stereo not drawn) [Example 111] | 87.5% |  | 
52 | Cc1cc(C(C)(OCCN(C)C)c2ccccc2)n(C)n1 (stereo not drawn) [Example 38] |  | 42.5% | 
53 | CCCCC(O)(c1cccc(Cl)c1)c1nccn1C (stereo not drawn) [Example 119] | 90% |  | inhibition in vivo at 160 mg/kg [2, 5]: 45%
54 | CCCCn1ccnc1C(O)(CCCC)c1ccc(Cl)cc1Cl (stereo not drawn) [Example 144] | 88.8% |  | 
55 | COc1cc(C(C)(OCCCN(C)C)c2nccn2C)cc(OC)c1OC (stereo not drawn) [Example 68] | 95% |  | 
56 | Cn1ccnc1C(OCCCN1CCCCC1)c1ccc(Cl)cc1 (stereo not drawn) [Example 82] | 83.8% |  | 
57 | CCCCC(OCCN(C)C)(c1cccc(Cl)c1)c1nccn1C (stereo not drawn) [Example 9] | 97.5% |  | 
58 | CN(C)CCCOC(c1ccc(Cl)cc1)(c1nccn1C)C1CCN(C)CC1 (stereo not drawn) [Example 91] |  | 57.5% | 
59 | CN(C)CCCn1ccnc1C(C)(O)c1ccc(Cl)cc1 (stereo not drawn) [Example 146] |  | 28.5% | 
60 | Cn1nccc1C(OCCN1CCCC1)c1ccccc1 (stereo not drawn) [Example 34] |  |  | inhibition in vivo at 160 mg/kg [3]: 40%
61 | CN(C)CCOC(C)(c1cccc(Cl)c1)c1nccn1C (stereo not drawn) [Example 8] | 95% |  | 
